From patent publication US20090232735A1, “USE OF FRUCTOSE-BASED THERAPIES FOR THE TREATMENT OF CANCER” (CEDARS-SINAI MEDICAL CENTER, priority 2005, published 2009)
“Also recorded” adds a separate entry of the source.

Tested on: PANC-1 pancreatic cancer cells
Test: PANC-1 pancreatic cancer cell proliferation (MTS assay)
Format: cell-based, human
Details: oxythiamine 0.5 mM, 72 h, MTS
Protocol: FIG. 13 depicts higher proliferation rates in pancreatic cancer cells in fructose (5.5 mM) than glucose (5.5 mM) containing medium in accordance with an embodiment of the present invention. PANC-1 cells were pre-incubated in 2 mM glucose, after which they were plated in 5.5 mM fructose or glucose for times between 12-72 h, after which proliferative rates were measured using an MTS assay. Proliferative rates are expressed as the percentage difference between cells grown in 5.5 mM fructose versus 5.5 mM glucose. p<0.01 for times>48 h.
FIG. 14 depicts proliferation rates of pancreatic cells in different fructose or glucose concentrations in accordance with an embodiment of the present invention. PANC-1 cells were plated in a range of fructose or glucose concentrations (5-25 mM) for 72 h, after which proliferative rates were measured using an MTS assay. *, p<0.05 for concentrations between 5-25 mM fructose versus glucose.
FIG. 17 depicts cell proliferation regardless of co-existent glucose concentration in accordance with an embodiment of the present invention. PANC-1 cells were pre-incubated in 2 mM glucose prior to treatment with a range of concentrations (0-15 mM) mixed with a range of fructose concentrations (0-15 mM) for 72 h. PANC-1 cell proliferative rates were then measured using the MTS assay (absorbance in arbitrary units).
FIG. 35 depicts inhibition of pancreatic cancer PANC-1 cell proliferation by incubation with the transketolase inhibitor, oxythiamine (0.5-2 mM) for 72 h in accordance with an embodiment of the present invention. Proliferative rates were measured using the MTS proliferation assay.
Standard media for maintenance cancer cell line culture, including pancreatic cancer cells such as PANC-1 cells contain either low—(5-7 mM), or high—(12-25 mM) glucose concentrations. Clearly, apart from the setting of hyperglycemia, as in patients with diabetes, the glucose concentrations in which pancreatic cancer cells are maintained in vitro are much higher than normal physiological conditions, which range between 2-5 mM glucose. […] Therefore, the inventors first pre-treated the pancreatic cancer cells overnight in standard DMEM medium containing low physiological glucose concentrations (2 mM glucose), and standard 10% fetal bovine serum. The pancreatic cancer cells were then incubated for times between 12, and 96 hours in standard DMEM medium containing 10% fetal bovine serum, and 5.5 mM glucose or 5.5 mM fructose. Proliferative rates were then measured in replicate (minimum of 6) aliquot wells of the pancreatic cancer cells, and the change (expressed as percent increase) in proliferative rates compared between cells grown in glucose, or fructose containing medium.
This first result intrigued the inventors, but given there is little documentation regarding physiological fructose concentrations, the inventors first considered that the “apparent” pro-proliferative effects of fructose were simply a consequence of the highly stylized in vitro experimental conditions, and that if the pancreatic cancer cells were cultured in higher glucose concentrations, this would result in similar proliferative rates to those the inventors observed following culture in 5.5 mM fructose. Therefore, in the next experiments, the inventors compared proliferative rates of the PANC-1 pancreatic cancer cells following culture for 72 h in a range of fructose, and glucose concentrations (2-25 mM). This timepoint was chosen as the inventors had seen maximal pancreatic cancer cell proliferation in 5.5 mM fructose at 72 h. […] While not wishing to be bound by any particular theory, the inventors believe that this latter finding may be because the PANC-1 cells are proliferating at close to maximal capacity by 72 h, once they are exposed to comparatively low fructose concentrations (5 mM). MTS assay was employed to measure pancreatic cancer cell proliferative rates, which utilizes mitochondrial oxidation to quantify cell proliferation. […]

Cc1ncc(C[n+]2csc(CCO)c2C)c(=O)[nH]1 [oxythiamine, reference compound]
fructose-mediated increase in pancreatic cancer cell proliferation (5.5 mM fructose): virtually abolished; also recorded: almost completely abrogate | glucose-induced and fructose-induced PANC-1 proliferation: inhibited
